{
  "source": "paper PMC9865188",
  "about": "(Pharmaceutics, 2023)",
  "key": {"[1]": {"assay": "Nonspecific zosuquidar adsorption to glass HPLC vials", "assay_type": "physicochemical", "conditions": "for nonspecific zosuquidar adsorption: 25% methanol in HEPES HBSS pH 7.4; for zosuquidar concentration found (theoretical 250 nM): HEPES HBSS pH 7.4 in glass vial", "method": "Generally, when zosuquidar was diluted in aqueous solutions, less zosuquidar than expected was present according to HPLC-FL quantitation, when compared to the corresponding dilutions in water–organic solvent mixtures. […] These were further diluted in methanol or DMSO to 100 µM. For adsorption experiments, solutions of 0.5–49.5% v/v methanol or DMSO in HEPES HBSS pH 7.4 were prepared, along with HEPES HBSS pH 7.4 supplemented with 0.10, 1.0, 2.5, 5.0, 10, or 50 µM polysorbate 20 or 0.05% bovine serum albumin, as well as 10 mM MES HBSS pH 6.5, 10 mM ammonium acetate pH 4.5, 19 mM maleic acid buffer pH 6.5, and FaSSIF-V2. […] The vials were capped and vortexed for 1 min and equilibrated at ambient temperature for approximately 24 h before HPLC-FL analysis. The peak area of the samples was normalised to the peak area of control samples, which were considered to elicit 0% adsorption. […] Both vials were equilibrated at room temperature for at least 24 h. […] The solutions in both vials were then analysed directly by HPLC-FL."}, "[2]": {"conditions": "cited from earlier work"}, "[3]": {"target": "P-gp (Homo sapiens, UniProt P08183)", "sequence (P08183 whole entry)": "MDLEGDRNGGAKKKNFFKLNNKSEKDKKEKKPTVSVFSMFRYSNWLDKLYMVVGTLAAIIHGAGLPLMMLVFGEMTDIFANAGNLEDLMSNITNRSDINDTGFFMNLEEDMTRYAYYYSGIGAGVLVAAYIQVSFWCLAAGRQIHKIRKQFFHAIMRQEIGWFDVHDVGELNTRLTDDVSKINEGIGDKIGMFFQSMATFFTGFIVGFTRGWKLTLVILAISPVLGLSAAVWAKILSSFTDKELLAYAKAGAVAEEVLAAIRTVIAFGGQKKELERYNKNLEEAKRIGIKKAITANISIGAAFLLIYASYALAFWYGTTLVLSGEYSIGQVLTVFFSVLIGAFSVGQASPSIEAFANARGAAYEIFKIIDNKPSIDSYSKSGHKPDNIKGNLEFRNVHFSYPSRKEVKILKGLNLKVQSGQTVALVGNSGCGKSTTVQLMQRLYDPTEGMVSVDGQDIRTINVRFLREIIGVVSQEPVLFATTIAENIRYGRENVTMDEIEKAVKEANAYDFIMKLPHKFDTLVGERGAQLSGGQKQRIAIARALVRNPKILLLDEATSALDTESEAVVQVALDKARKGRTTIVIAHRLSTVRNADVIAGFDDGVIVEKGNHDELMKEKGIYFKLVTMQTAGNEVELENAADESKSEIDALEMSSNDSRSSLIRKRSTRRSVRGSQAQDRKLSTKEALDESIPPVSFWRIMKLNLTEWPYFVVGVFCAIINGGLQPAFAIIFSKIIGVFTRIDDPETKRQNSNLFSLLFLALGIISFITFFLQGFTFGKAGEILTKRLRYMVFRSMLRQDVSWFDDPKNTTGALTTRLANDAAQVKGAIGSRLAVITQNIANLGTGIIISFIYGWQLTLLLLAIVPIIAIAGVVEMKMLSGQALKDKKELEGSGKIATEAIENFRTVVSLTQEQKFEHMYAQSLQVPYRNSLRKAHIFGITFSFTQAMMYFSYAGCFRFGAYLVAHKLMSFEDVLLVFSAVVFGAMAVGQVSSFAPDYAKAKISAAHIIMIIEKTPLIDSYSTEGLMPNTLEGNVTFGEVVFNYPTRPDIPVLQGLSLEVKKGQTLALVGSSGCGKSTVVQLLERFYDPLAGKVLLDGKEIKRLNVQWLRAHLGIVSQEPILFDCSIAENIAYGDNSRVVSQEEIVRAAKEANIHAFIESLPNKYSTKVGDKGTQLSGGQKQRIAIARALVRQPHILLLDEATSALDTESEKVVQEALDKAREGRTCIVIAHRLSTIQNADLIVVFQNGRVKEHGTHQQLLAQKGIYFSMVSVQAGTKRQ", "assay": "Calcein-AM assay in MDCKII-MDR1 cells", "assay_type": "cell-based", "parameters": "Piet Borst (Netherlands Cancer Institute); host or cells: MDCKII", "method": "Before the experiment, growth medium was removed by vacuum suction (Vacusip, Integra Biosciences, NH, USA), 100 µL HEPES HBSS pH 7.4 was added to each well with a multichannel pipette, and the cells were incubated on a Talboys 1000 MP incubating microplate shaker (Troemner, NJ, USA, 220 rpm, 37 °C).\nA total of 170 µL of the test solutions could then be transferred from the 96-well plate to the cell-containing plate at the start of preincubation. […] Wells containing HEPES HBSS pH 7.4 only served as a positive control. The cells were preincubated with test solutions (serial and spike) for 10 min on a microplate shaker (37 °C, 220 rpm). To start the experiment, 30 µL 33.3 µM calcein-AM in HEPES HBSS pH 7.4 was added to each well with a multichannel pipette, and the plate was stirred for 1 min on a microplate shaker (37 °C, 220 rpm) before being transferred to a Fluostar Omega plate reader.\nOne column of wells was kept without cells to measure background fluorescence signals from the applied buffers and compounds."}, "[4]": {"conditions": "HEPES HBSS pH 7.4 + 5 or 10 µM polysorbate 20, 1% methanol, or 1% DMSO", "procedure": "Samples were shaken on a vertical rotator (10 rpm, PTR-60, Grant Instruments, Cambridge, UK) for approximately 72 h at ambient temperature. The suspensions were then centrifuged at ambient temperature (15,000 RCF, 10 min, Multifuge X1R, Thermo Fisher Scientific, Boston, MA, USA), and a sample of the supernatant was transferred and diluted 1:1 with mobile phase in a 2 mL glass HPLC vial and analysed by fluorescence-coupled HPLC (HPLC-FL)."}, "[5]": {"assay": "Pharmacokinetic study in Sprague Dawley rats (oral gavage)", "assay_type": "in vivo", "conditions": "for AUC(0-t) / Cmax / bioavailability / half-life: male, Sprague-Dawley, rat, plasma, po; for AUC(0-t): Zosuquidar AUC0–6h; for Cmax: Zosuquidar Cmax; for bioavailability: Zosuquidar bioavailability; for half-life: Zosuquidar t½", "method": "The study was conducted according to the European Convention for the Protection of Vertebrate Animals used for Experimental and other Scientific Purposes (ETS no. 123) and Belgian law controlling the experiments on animals (Royal Decree of 29 May 2013 for the protection of laboratory animals). Animals were allowed minimum five days to acclimatise upon arrival from the supplier, and they were housed in polysulphone cages (58 × 52 × 20 cm) in groups of six provided with wooden sticks for enrichment. Animals had free access to Safe 04 Maintenance Diet (Safe, Rosenberg, Germany) and water during acclimatisation and during the study.\nMale Sprague Dawley rats (Charles River, Dortmund, Germany) weighing 293–358 g were randomly assigned into six groups of six animals. Formulations were prepared as clear solutions in 40% v/v ethanol–water and 10 mL/kg was administered to each animal by oral gavage. […] Plasma samples were taken by tail vein puncture with a needle followed by collection in 32–64 µL micro haematocrit tubes (Vitrex Medical, Herlev, Denmark) at times 15, 30, and 45 min and 1, 2, 3, 4, and 6 h. Samples were centrifuged, and plasma was transferred into 10 µL end-to-end pipettes (Vitrex Medical, Herlev, Denmark) and immediately frozen at −80 °C until bioanalysis. Immediately after the study, animals were euthanised according to the principles of euthanasia stated in the AVMA Guidelines for the Euthanasia of Animals (American Veterinary Medical Association, 2020). Plasma samples were analysed by a previously described qualified LC-MS/MS method.\nPharmacokinetic parameters were calculated individually for each animal subject and pooled for statistical analysis. The plasma concentration at 15 min (C15min) was reported as an average of the plasma concentration of the six animals in each group. […] Elimination rate constants (ke) were calculated by linear regression of the linear part of the ln(plasma concentration) versus time profiles, and plasma half-life (t½) was calculated from ke:(3) t½=ln (2)/ke"}, "[6]": {"conditions": "group G*: zosuquidar 2.0 mg/kg + etoposide 20 mg/kg oral"}, "[7]": {"conditions": "group H*: zosuquidar 6.3 mg/kg + etoposide 20 mg/kg oral"}, "[8]": {"conditions": "2 mg/kg, group D: zosuquidar 2.0 mg/kg + etoposide 20 mg/kg + 5.0% v/v polysorbate 20 oral"}, "[9]": {"conditions": "6.3 mg/kg, group E: zosuquidar 6.3 mg/kg + etoposide 20 mg/kg + 5.0% v/v polysorbate 20 oral"}, "[10]": {"conditions": "6.3 mg/kg, group F: zosuquidar 6.3 mg/kg + etoposide 20 mg/kg + 10% v/v polysorbate 20 oral"}},
  "note": "Like-named read-outs stand apart in the source and are kept apart here.",
  "data": [
    {"smiles": "O[C@@H](COc1cccc2ncccc12)CN1CCN([C@@H]2c3ccccc3[C@@H]3[C@H](c4ccccc42)C3(F)F)CC1", "note": "[zosuquidar]", "values": [
      {"measurement": "nonspecific zosuquidar adsorption", "setting": "[1]; 500 nM zosuquidar", "value": "2.19 ± 6.71", "unit": "%"},
      {"measurement": "zosuquidar adsorption", "setting": "[1]; 500 nM zosuquidar, 50% DMSO in HEPES HBSS pH 7.4", "value": "−5.9 ± 1.1", "unit": "%"},
      {"measurement": "zosuquidar adsorption", "setting": "[1]; 500 nM zosuquidar, FaSSIF-V2 pH 6.5", "value": "13.6 ± 1.0", "unit": "%"},
      {"measurement": "zosuquidar adsorption", "setting": "[1]; 500 nM zosuquidar, HEPES HBSS pH 7.4 + 0.5% methanol", "value": "97.0 ± 0.6", "unit": "%"},
      {"measurement": "nonspecific zosuquidar adsorption", "setting": "[1]; 0.75 µM zosuquidar", "value": "6.83 ± 2.33", "unit": "%"},
      {"measurement": "nonspecific zosuquidar adsorption", "setting": "[1]; 2.5 µM zosuquidar", "value": "2.76 ± 0.22", "unit": "%"},
      {"measurement": "nonspecific zosuquidar adsorption", "setting": "[1]; 7.5 µM zosuquidar", "value": "−0.10 ± 2.02", "unit": "%"},
      {"measurement": "nonspecific zosuquidar adsorption", "setting": "[1]; 25 µM zosuquidar", "value": "32.5 ± 0.7", "unit": "%"},
      {"measurement": "zosuquidar concentration found (theoretical 250 nM)", "setting": "[1]; after transfer to a new vial", "value": "38.1 ± 13.7", "unit": "nM"},
      {"measurement": "zosuquidar concentration found (theoretical 250 nM)", "setting": "[1]; without transfer", "value": "282 ± 8", "unit": "nM"},
      {"measurement": "Zosuquidar AUC0–6h", "setting": "[2]; group F*: zosuquidar 0.63 mg/kg + etoposide 20 mg/kg oral", "value": "BLQ"},
      {"measurement": "Zosuquidar AUC0–6h", "setting": "[2]; [6]", "value": "8.67 ± 0.77", "unit": "ng·h/mL"},
      {"measurement": "Zosuquidar Cmax", "setting": "[2]; [6]", "value": "2.10 ± 0.27", "unit": "ng/mL"},
      {"measurement": "Zosuquidar bioavailability", "setting": "[2]; [6]", "value": "2.58 ± 0.23", "unit": "%"},
      {"measurement": "Zosuquidar tmax, median [Q1; Q3]", "setting": "[2]; [6]", "value": "120 [45;135] min"},
      {"measurement": "Zosuquidar t½", "setting": "[2]; [6]", "value": "3.62 ± 0.45", "unit": "h"},
      {"measurement": "Zosuquidar AUC0–6h", "setting": "[2]; [7]", "value": "43.6 ± 5.4", "unit": "ng·h/mL"},
      {"measurement": "Zosuquidar Cmax", "setting": "[2]; [7]", "value": "10.9 ± 1.2", "unit": "ng/mL"},
      {"measurement": "Zosuquidar bioavailability", "setting": "[2]; [7]", "value": "4.12 ± 0.51", "unit": "%"},
      {"measurement": "Zosuquidar tmax, median [Q1; Q3]", "setting": "[2]; [7]", "value": "90 [45;120] min"},
      {"measurement": "Zosuquidar t½", "setting": "[2]; [7]", "value": "2.68 ± 0.217", "unit": "h"},
      {"measurement": "mean P-gp activity", "setting": "[3]; […] zosuquidar + 2.5 µM polysorbate 20, spike method", "value": 61, "unit": "%"},
      {"measurement": "mean P-gp activity", "setting": "[3]; […] zosuquidar + 5 µM polysorbate 20, spike method", "value": 46, "unit": "%"},
      {"measurement": "discrepancy of IC50, serial dilution vs spike method", "setting": "[3]; calcein-AM, zosuquidar alone", "value": 60, "unit": "fold"},
      {"measurement": "effect on solubility", "setting": "[4]", "value": "did not significantly affect"},
      {"measurement": "Zosuquidar AUC0–6h", "setting": "[5]; group B: zosuquidar 0.63 mg/kg + etoposide 20 mg/kg + 1.0% v/v polysorbate 20 oral", "value": "BLQ"},
      {"measurement": "Zosuquidar tmax, median [Q1; Q3]", "setting": "[5]; group E: zosuquidar 6.3 mg/kg + etoposide 20 mg/kg + 5.0% v/v polysorbate 20 oral", "value": "60 [56;120] min"},
      {"measurement": "AUC(0-t)", "setting": "[5]; [8]", "value": "18.9 ± 2.8", "unit": "ng·h/mL"},
      {"measurement": "Cmax", "setting": "[5]; [8]", "value": "4.8 ± 0.5", "unit": "ng/mL"},
      {"measurement": "bioavailability", "setting": "[5]; [8]", "value": "5.64 ± 0.83", "unit": "%"},
      {"measurement": "half-life", "setting": "[5]; [8]", "value": "3 ± 0.383", "unit": "h"},
      {"measurement": "AUC(0-t)", "setting": "[5]; [9]", "value": "47 ± 3.7", "unit": "ng·h/mL"},
      {"measurement": "AUC(0-t)", "setting": "[5]; [10]", "value": "56.8 ± 4.2", "unit": "ng·h/mL"},
      {"measurement": "Cmax", "setting": "[5]; [9]", "value": "13.2 ± 1", "unit": "ng/mL"},
      {"measurement": "Cmax", "setting": "[5]; [10]", "value": "16.6 ± 1.1", "unit": "ng/mL"},
      {"measurement": "bioavailability", "setting": "[5]; [9]", "value": "4.45 ± 0.35", "unit": "%"},
      {"measurement": "bioavailability", "setting": "[5]; [10]", "value": "5.38 ± 0.4", "unit": "%"},
      {"measurement": "half-life", "setting": "[5]; [9]", "value": "2.53 ± 0.333", "unit": "h"},
      {"measurement": "half-life", "setting": "[5]; [10]", "value": "2.45 ± 0.167", "unit": "h"}
    ]}
  ]
}
